Experimental data published in patent US8013159B2, “Quinoline derivatives as EP4 antagonists” (Merck Canada Inc., priority 2005, dated 2011).

Target: T1, EP4 receptor (Homo sapiens, UniProt P35408)
T1 construct: expressed in transfected cells; membranes prepared by differential centrifugation
Experiment: Prostanoid receptor binding assay (EP4), membranes of transfected HEK 293(ebna) cells
Details: representative data, read-out: Potency in Binding Assay
Procedure: Prostanoid receptor cDNAs corresponding to full length coding sequences are subcloned into the appropriate sites of mammalian expression vectors and transfected into HEK 293(ebna) cells. HEK 293(ebna) cells expressing the individual cDNAs are grown under selection and individual colonies are isolated after 2-3 weeks of growth using the cloning ring method and subsequently expanded into clonal cell lines.
Transfected HEK 293(ebna) cells are maintained in culture, harvested and membranes are prepared by differential centrifugation, following lysis of the cells in the presence of protease inhibitors, for use in receptor binding assays. Prostanoid receptor binding assays (for DP1, DP2 (CRTH2), EP 1, EP2, EP3-11, EP4, FP, IP, and TP) are performed in 10 mM MES/KOH (pH 6.0) (EPs, FP and TP) or 10 mM HEPES/KOH (pH 7.4) (DPs and IP), containing 1 mM EDTA, 2.5-30 mM divalent cation and the appropriate radioligand. Synthetic compounds are added in dimethylsulfoxide which is kept constant at 1% (v/v) in all incubations. The reaction is initiated by addition of membrane protein. Non-specific binding is determined in the presence of 10 μM of the corresponding non-radioactive prostanoid. Incubations are conducted for 60-90 min at room temperature or 30° C. and terminated by rapid filtration. Specific binding is calculated by subtracting non specific binding from total binding. The residual specific binding at each ligand concentration is calculated and expressed as a function of ligand concentration in order to construct sigmoidal concentration-response curves. The binding affinity of the compounds is determined by calculating the equilibrium inhibition constant (Ki) from the equation Ki=InPt/1+[radioligand]/Kd where Kd is the equilibrium dissociation constant for the radioligand:receptor interaction and InPt is the inflection point of the dose-response curves.

T1 sequence (P35408 whole entry): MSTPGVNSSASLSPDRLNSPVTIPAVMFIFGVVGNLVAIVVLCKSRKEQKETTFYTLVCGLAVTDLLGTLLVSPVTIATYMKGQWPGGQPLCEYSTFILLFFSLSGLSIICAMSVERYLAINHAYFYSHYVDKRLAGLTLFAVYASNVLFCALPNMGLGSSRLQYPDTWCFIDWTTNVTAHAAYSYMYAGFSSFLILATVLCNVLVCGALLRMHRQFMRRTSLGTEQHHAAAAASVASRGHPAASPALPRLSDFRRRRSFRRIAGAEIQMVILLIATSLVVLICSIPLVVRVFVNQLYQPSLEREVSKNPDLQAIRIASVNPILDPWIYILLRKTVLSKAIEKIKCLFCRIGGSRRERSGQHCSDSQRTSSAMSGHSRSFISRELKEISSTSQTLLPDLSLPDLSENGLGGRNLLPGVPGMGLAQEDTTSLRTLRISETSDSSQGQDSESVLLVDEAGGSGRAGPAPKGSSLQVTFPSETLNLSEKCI

Question: How did the IC50 turn out when `CCOc1c2c(c(OCC)c3ncccc13)CN(c1ccc(CS(=O)(=O)NC(=O)Cc3ccccc3OC)cc1C)C2=O` [Example 1, N-{[4-(5,9-diethoxy-6-oxo-6,8-dihydro-7H-pyrrolo[3,4-g]quinolin-7-yl)-3-methylbenzyl]sulfonyl}-2-(2-methoxyphenyl)acetamide] was run?
Answer: 0.47 nM

Question: With `CCOc1c2c(c(OCC)c3ncccc13)CN(c1ccc(CS(=O)(=O)NC(=O)Cc3ccccc3C(F)(F)F)cc1C)C2=O` [Example 7, N-{[4-(5,9-diethoxy-6-oxo-6,8-dihydro-7H-pyrrolo[3,4-g]quinolin-7-yl)-3-methylbenzyl]sulfonyl}-2-[2-(trifluoromethyl)phenyl]acetamide] as the compound, how does the IC50 read?
Answer: 0.42 nM

Question: `CCOc1c2c(c(OCC)c3ncccc13)CN(c1ccc(CS(=O)(=O)NC(=O)Cc3cccc4ccccc34)cc1C)C2=O` [Example 19, N-{[4-(5,9-diethoxy-6-oxo-6,8-dihydro-7H-pyrrolo[3,4-g]quinolin-7-yl)-3-methylbenzyl]sulfonyl}-2-(1-naphthyl)acetamide] was tested. Which IC50 did it give?
Answer: 0.72 nM

Question: Which IC50 does the source give for `COc1cccc(OC)c1C1(C(=O)NS(=O)(=O)Cc2ccc(N3Cc4c(c(OCC(F)(F)F)c5cccnc5c4OCC(F)(F)F)C3=O)c(C)c2)CC1` [Example 33, (1-(2,6-dimethoxyphenyl)-N-({3-methyl-4-[6-oxo-5,9-bis(2,2,2-trifluoroethoxy)-6,8-dihydro-7H-pyrrolo[3,4-g]quinolin-7-yl]benzyl}sulfonyl)cyclopropanecarboxamide)] here?
Answer: 0.83 nM

Question: With `CCOc1c2c(c(OCC)c3ncccc13)CN(c1ccc(CS(=O)(=O)NC(=O)C3(c4ccc(Cl)cc4Cl)CC3)cc1C)C2=O` [Example 39, 1-(2,4-dichlorophenyl)-N-{[4-(5,9-diethoxy-6-oxo-6,8-dihydro-7H-pyrrolo[3,4-g]quinolin-7-yl)-3-methylbenzyl]sulfonyl}cyclopropane-carboxamide] as the compound, how does the IC50 read?
Answer: 0.76 nM

Question: With `COc1cccc(OC)c1C1(C(=O)NS(=O)(=O)Cc2ccc(N3Cc4c(c(OCC(F)(F)F)c5cccnc5c4OCC(F)(F)F)C3=O)c(Cl)c2)CC1` [Example 63, N-({3-chloro-4-[6-oxo-5,9-bis(2,2,2-trifluoroethoxy)-6,8-dihydro-7H-pyrrolo[3,4-g]quinolin-7-yl]benzyl}sulfonyl)-1-(2,6-dimethoxyphenyl)cyclopropane-carboxamide] as the compound, how does the IC50 read?
Answer: 0.61 nM
